Columns and labels:
[1] = system: Sphaerotheca fuliginea; test: Sphaerotheca test (cucumber) / protective; settings: active compound concentration 100 ppm, evaluation 10 days after inoculation
Experimental: Solvent: 4.7 parts by weight of acetone
Emulsifier: 0.3 parts by weight of alkylaryl polyglycol ether
After the spray coating has dried on, the plants are dusted with conidia of the fungus Sphaerotheca fuliginea.
The plants are then placed in a greenhouse at 23 to 24° C. and at a relative atmospheric humidity of about 75%.
Evaluation is carried out 10 days after the inoculation.

[2] = system: mustard beetle larvae (Phaedon cochleariae); test: Phaedon larvae test; type: in vivo; settings: after 7 days; active compound concentration 0.01%; cabbage leaves dipped
Experimental: (§1) Phaedon Larvae Test Solvent: 7 parts by weight of dimethylformamide Emulsifier: 1 part by weight of alkylaryl polyglycol ether […] Cabbage leaves (Brassica oleracea) are treated by being dipped into the preparation of the active compound of the desired concentration and are infested with mustard beetle larvae (Phaedon cochleariae), while the leaves are still moist.

[3] = system: larvae of the green rice leafhopper (Nephotettix cincticeps); test: Nephotettix test; type: in vivo; settings: after 6 days; active compound concentration 0.1%; rice seedlings dipped
Experimental: Nephotettix Test Solvent: 7 parts by weight of dimethylformamide Emulsifier: 1 part by weight of alkylaryl polyglycol ether […] Rice seedlings (Oryzae sativa) are treated by being dipped into the preparation of the active compound of the desired concentration and are infested with larvae of the green rice leafhopper (Nephotettix cincticeps), while the seedlings are still moist.

[4] = system: common spider mite (Tetranychus urticae); test: Tetranychus test (resistance); type: in vivo; settings: after 13 days; active compound concentration 0.01%; bean plants dipped
Experimental: Tetranychus Test (Resistance)
Solvent: 3 parts by weight of dimethylformamide
(§2) Emulsifier: 1 part by weight of alkylaryl polyglycol ether
After the specified period of time, the destruction in % is determined. 100% means that all the spider mites have been killed 0% means that none of the spider mites have been killed.

[5] = system: black bean aphids (Aphis fabae); test: Limit concentration test / root-systemic action; type: in vivo; settings: active compound concentration 20 ppm in soil; beans (Vicia faba); leaves infested after 7 days, evaluated after a further 2 days
Source text: Limit Concentration Test/Root-systemic Action Test insect: Aphis fabae Solvent: 4 parts by weight of acetone Emulsifier: 1 part by weight of alkylaryl polyglycol ether […] The preparation of active compound is intimately mixed with soil. The concentration of the active compound in the preparation is of no importance in practise, only the amount by weight of active compound per unit volume of soil, which is given in ppm (=mg/l), being decisive. The treated soil is transferred into pots and these are planted with beans (Vicia faba). The active compound can in this way be taken up from the soil by the roots of the plants and be transported into the leaves. […] After a further 2 days, the evaluation is made by counting or estimating the dead animals. The root-systemic action of the active compound is deduced from the destruction figures.

[6] = system: All larval stages of Lucilia cuprina (OP resistant); test: Test with fly larvae / development-inhibiting activity; type: in vivo; settings: active compound concentration 1000 ppm
Experimental: Test with Fly Larvae/Development-inhibiting Activity
Test animals: All larval stages of Lucilia cuprina (OP resistant) [Pupae and adults (without contact with the active compound)]
Solvent: 35 parts by weight of ethylene glycol monomethyl ether 35 parts by weight of nonylphenol polyglycol ether
For each concentration, 30 to 50 larvae are introduced into test tubes containing horse meat (1 cm^3), onto which […] of the dilution under test are pipetted. The glass test tubes are placed in plastic beakers which have bottoms covered with sea sand and are kept in an air-conditioned room (26° C.±1.5° C., 70% relative humidity ±10%). The action is inspected after 24 hours and 48 hours (larvicidal action). After emigration of the larvae (approximately 72 h), the test tubes are removed and perforated plastic lids are placed on the beakers. After 1½ times the development period (emergence of the control flies), the emerged flies and the pupae/pupal cases are counted.
The criterion of activity used is the occurrence of death of the treated larvae after 48 h (larvicidal effect), or the inhibition of adult emergence from the pupae, or inhibition of pupal formation. The criterion used for the in-vitro activity of a substance is inhibition of fly development, or cessation of development prior to the adult stage. 100% larvicidal activity means that all larvae have died after 48 hours. 100% development inhibition activity means that no adult flies emerged.

[7] = system: caterpillars of the diamond-back moth (Plutella maculipennis); test: Plutella test; type: in vivo; settings: after 7 days; active compound concentration 0.1%; cabbage leaves dipped
Experimental: as §1, with “Plutella” for “Phaedon Larvae”, “caterpillars of the diamond-back moth (Plutella maculipennis),” for “mustard beetle larvae (Phaedon cochleariae),”

[8] = system: caterpillars of the owlet moth (Spodoptera frugiperda); test: Spodoptera test; type: in vivo; settings: after 7 days; active compound concentration 0.1%; cabbage leaves dipped
Experimental: Solvent: 7 parts by weight of dimethylformamide
as §2
Cabbage leaves (Brassica oleracea) are treated by being dipped into the preparation of the active compound of the desired concentration and are infested with caterpillars of the owlet moth (Spodoptera frugiperda), while the leaves are still moist.
After the specified period of time, the destruction in % is determined. 100% means that all the caterpillars have been killed; 0% means that none of the caterpillars have been killed.

Compound | activity in comparison with the untreated control [1] [%] | degree of destruction [2] [%] | degree of destruction [3] [%] | degree of destruction [7] [%] | other results
Cc1cc(C)c(-c2c(OCOCC(C)C)c(C)c(-c3ccc(Cl)cc3)oc2=O)c(C)c1 [Example 2, 6-(4-chlorophenyl)-4-[(2-methyl-1-propoxy)-methoxy]-5-methyl-3-(2,4,6-trimethylphenyl)-2-pyrone] | 100 |  |  |  | 
CCOCOc1c(C)c(-c2ccccn2)oc(=O)c1-c1c(C)cc(C)cc1C [Example 26] |  | 100 | 100 |  | 
Cc1cc(C)c(-c2c(OCOC(C)C)cc(C3(Cl)CC3)oc2=O)c(C)c1 [Example 21] | 100 |  | 100 |  | degree of destruction [4]: 100%
C#CCOCOc1c(C)c(-c2ccccn2)oc(=O)c1-c1c(C)cc(C)cc1C [Example 1, 5-methyl-6-(2-pyridyl)-4-propargyloxymethoxy-3-(2,4,6-trimethylphenyl)-2-pyrone] | 100 |  | 100 |  | degree of destruction (root-systemic action) [5]: 100%; inhibition at 1000 ppm ([6]; Lucilia cuprina, read-out: activity (larvicidal / development inhibition)): 100%
Cc1cc(C)c(-c2c(OCOC(C)C)c(C)c(C3CCCC3)oc2=O)c(C)c1 [Example 34] |  |  |  | 100 | degree of destruction [8]: 100%
Cc1cc(C)c(-c2c(OCOCC(C)C)oc(-c3ccsc3)c(C)c2=O)c(C)c1 [Example 36, 2-[(2-Methyl-1-propoxy)-methoxy]-5-methyl-6-(3-thienyl)-3-(2,4,6-trimethyl-phenyl)-4-pyrone] |  |  |  |  | melting point: 102 to 104 °C
Cc1cc(C)c(-c2c(OCOC(C)C)c(C)c(-c3cccc(C)n3)oc2=O)c(C)c1 [Example 28] |  | 100 | 100 | 100 | 
Cc1cc(C)c(-c2c(OCOCC(C)C)c(C)c(-c3cccc(C)n3)oc2=O)c(C)c1 [Example 27] |  | 100 | 100 | 100 | 
Cc1cc(C)c(-c2c(OCOC(C)C)c(C)c(-c3ccc(F)cc3)oc2=O)c(C)c1 [Example 9] | 100 | 100 | 100 | 100 | degree of destruction [8]: 100%; degree of destruction [4]: 100%; activity (larvicidal / development inhibition) [6]: 100%
Cc1cc(C)c(-c2c(OCOCC(C)C)c(C)c(-c3ccccn3)oc2=O)c(C)c1 [Example 10] | 100 |  |  | 100 | degree of destruction (root-systemic action) [5]: 100%; degree of destruction [4]: 100%; activity (larvicidal / development inhibition) [6]: 100%
CCOCOc1c(C)c(-c2ccc(F)cc2)oc(=O)c1-c1c(C)cc(C)cc1C [Example 4] | 100 | 100 | 100 | 100 | degree of destruction [8]: 100%; activity (larvicidal / development inhibition) [6]: 100%
C#CCOCOc1c(C)c(-c2ccc(F)cc2)oc(=O)c1-c1c(C)cc(C)cc1C [Example 7] | 100 |  | 100 |  | 
C#CCOCOc1c(C)c(C2CCCC2)oc(=O)c1-c1c(C)cc(C)cc1C [Example 33] |  |  | 100 |  | 
Cc1cc(C)c(-c2c(OCOCC(C)C)c(C)c(-c3ccc(F)cc3)oc2=O)c(C)c1 [Example 8] | 100 |  |  |  | 
CCOCOc1c(C)c(C2CCCC2)oc(=O)c1-c1c(C)cc(C)cc1C [Example 32] |  |  | 100 | 100 | degree of destruction [8]: 100%
CCOCOc1cc(CC(C)C)oc(=O)c1-c1c(C)cc(C)cc1C [Example 5] |  | 100 |  | 100 | degree of destruction [8]: 100%
Cc1cc(C)c(-c2c(OCOC(C)C)c(C)c(-c3ccccn3)oc2=O)c(C)c1 [Example 11] | 100 |  | 100 |  | degree of destruction (root-systemic action) [5]: 100%; degree of destruction [4]: 100%; activity (larvicidal / development inhibition) [6]: 100%

Source: US6576771B1, “Oxymethoxy-3-aryl-pyrone derivatives” (Bayer Aktiengesellschaft, priority 1995, dated 2003)
